Measured values reported in patent publication US8809002B2, “MUC1, caspase-8, and DED-containing proteins” (Dana-Farber Cancer Institute, Inc., priority 2008, dated 2014).
Ends that are not written are not given here.

How the values were obtained:
BC-1 cells = assay: FasL-induced apoptosis of BC-1 cells (sub-G1 DNA content); type: cell-based, human; details: 50 ng/ml FasL, 24 hours (FIG. 1C, 1D)
Description: FIG. 1C: The indicated BC-1 cell populations were treated with 50 ng/ml FasL for 24 hours and then analyzed by fluorescence assisted cell sorting (FACS) to determine the sub-G1 DNA content in the cells.
FIG. 1D: The results obtained with the indicated BC-1 cell populations left untreated (open bars) or treated with FasL (solid bars) are expressed as the percentage apoptosis (mean+SD for three experiments).
Cells were fixed in 70% ethanol and incubated in PBS containing 50 μg/ml RNase and 2.5 μg/ml propidium iodide. DNA content was analyzed by flow cytometry. The percentage of cells with sub-G1 DNA was determined by the MODFIT LT Program (Verity Software, Topsham, Me.). Cells were also suspended in Annexin-V-FLOUS containing propidium iodide (Roche) and analyzed by flow cytometry.

MUC1-C = assay: Silencing of MUC1 expression in BC-1 cells, immunoblot; type: cell-based, human; details: lentivirus, compared to control siRNA (FIG. 1A)
Text: FIG. 1A: BC-1 cells were infected with lentiviruses expressing the CsiRNA, MUC1siRNA#1 or MUC1siRNA#2. Lysates from the indicated cell populations were immunoblotted with anti-MUC1-C and anti-β-actin antibodies as indicated to the right of the photographs. The molecular weights of each of the proteins (in kilodaltons (kDa)) are indicated to the left of each of the photographs.
The BLOCK-iT Target Screening System (Invitrogen, Carlsbad, Calif.) was used to generate two MUC1-specific siRNA molecules (Sequence #1: […] (SEQ ID NO:31); or Sequence #2: […] (SEQ ID NO:32)) and a control siRNA sequence ([…]; SEQ ID NO:33). The RNAi cassettes (nucleic acids encoding the siRNA molecules) were inserted into pLenti4/BLOCK-iT-DEST by LR recombination for the generation of lentiviral vectors. BC-1 cells were infected with the lentiviruses at a multiplicity of infection of 5 in the presence of 8 μg/ml polybrene. Cell clones were selected in methylcellulose semi-solid medium containing 200 μg/ml Zeocin and assayed for downregulation of MUC1 by immunoblotting. […]
Cells were lysed by sonication in the presence of 10 mM Tris-HCl, pH 7.5, 150 mM NaCl, 5 mM EDTA, 0.5% NP-40, 100 μg/ml phenylmethylsulphonyl fluoride (PMSF), and standard protease inhibitors. […] Reactivity was detected with horseradish peroxidase-conjugated secondary antibodies and chemiluminescence (GE Healthcare Biosciences, Piscataway, N.J.).

caspase-8-p18 = biological target: T1, caspase-8-p18 (Homo sapiens, UniProt Q14790); assay: In vitro binding assay: GST-MUC1-CD(1-20) with His-caspase-8-p18 in the presence of MUC1-CD(1-20) peptide; details: increasing amounts of peptide; GST pull-down, immunoblot (FIG. 9D, lower)
T1 construct: His; made in house; host or cells: E. coli BL21 DE3 is stated for the GST proteins; no host is printed for the His proteins
T1 sequence (Q14790 184-384): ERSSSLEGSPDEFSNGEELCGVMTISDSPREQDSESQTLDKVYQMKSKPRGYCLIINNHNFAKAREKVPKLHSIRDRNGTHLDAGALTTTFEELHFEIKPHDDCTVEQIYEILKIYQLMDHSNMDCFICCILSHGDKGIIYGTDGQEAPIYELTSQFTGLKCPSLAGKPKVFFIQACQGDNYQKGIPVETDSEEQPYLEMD
Description: (§1) FIG. 9D: GST or the indicated GST-MUC1-CD proteins were incubated with His-caspase-8-p18 (upper panel). The adsorbates were immunoblotted with anti-His and anti-GST antibodies. GST or GST-MUC1-CD(1-20) was incubated with His-caspase-8-p18 in the presence of increasing amounts of MUC1-CD(1-20) peptide (lower panel). The adsorbates were immunoblotted with anti-caspase-8 antibody as indicated to the right of the photographs. Input of the GST proteins was assessed by Coomassie blue staining.
(§2) Purified GST, GST-MUC1-CD(1-72), GST-MUC1-CD deletion mutants, GST-caspase-8, GST-caspase-8 deletion mutants, GST-FADD, GST-N-FADD and GST-C-FADD protein (36) were purified from E. coli (BL21 DE3) and immobilized on glutathione-agarose beads (Pierce). His-MUC1-CD(1-72) and His-caspase-8 deletion mutant proteins were purified on Ni-NTA beads (Qiagen, Valencia, Calif.). GST and GST fusion proteins bound to glutathione beads were incubated with purified soluble proteins for 2 hours at 4° C., and washed. Adsorbates bound to the beads were analyzed by solubilizing the protein/bead mixture in Laemli buffer following by sodium dodecyl sulfate polyacrylamide gel electrophoresis (SDS-PAGE) and immunoblotting. For competition studies, GST-caspase-8 DED protein bound to FADD was incubated with increasing amounts of MUC1-CD protein. Precipitated proteins were subjected to SDS-PAGE and immunoblot analysis. […]

caspase-8 = assay: In vitro binding assay (GST pull-down) of MUC1-CD proteins with caspase-8; set-up: species or system human; details: immunoblot (FIG. 9A, 9D)
caspase-8, sequence (Q14790 184-384 limits assumed): as the sequence (Q14790 184-384) above
Description: FIG. 9A depicts the amino acid sequence for human MUC1-CD (SEQ ID NO:2). Phosphorylation sites and regions for β-catenin, IKKβ and IKKγ binding are indicated by brackets of arrows (upper panel). GST (glutathione-S-transferase) or GST-caspase-8 protein were incubated with purified His-MUC1-CD. The adsorbates and the input protein were immunoblotted with anti-His and anti-GST antibodies as indicated to the right of the photographs. The molecular weights of each of the proteins (in kilodaltons (kDa)) are indicated to the left of each of the photographs.
as §1, with “The adsorbates were immunoblotted with anti-caspase-8 antibody as indicated to the right of the photographs.” left out
Purified GST, GST-MUC1-CD(1-72), GST-MUC1-CD deletion mutants, GST-caspase-8, GST-caspase-8 deletion mutants, GST-FADD, GST-N-FADD and GST-C-FADD protein (36) were purified from E. coli (BL21 DE3) and immobilized on glutathione-agarose beads (Pierce). […] Adsorbates bound to the beads were analyzed by solubilizing the protein/bead mixture in Laemli buffer following by sodium dodecyl sulfate polyacrylamide gel electrophoresis (SDS-PAGE) and immunoblotting. […]

FADD [1] = biological target: T2, FADD (Homo sapiens, UniProt Q13158); assay: In vitro binding assay (GST pull-down) of GST-MUC1-CD proteins with purified FADD; details: immunoblot (FIG. 12A)
T2 sequence (Q13158 1-208): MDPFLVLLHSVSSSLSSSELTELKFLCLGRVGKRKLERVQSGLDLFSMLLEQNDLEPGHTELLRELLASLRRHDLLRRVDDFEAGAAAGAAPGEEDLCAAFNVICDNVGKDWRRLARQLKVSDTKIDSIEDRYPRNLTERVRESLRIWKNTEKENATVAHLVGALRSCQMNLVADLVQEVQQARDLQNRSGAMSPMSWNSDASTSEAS
Description: FIG. 12A: GST and the indicated GST-MUC1-CD proteins were incubated with purified FADD. The adsorbates and input FADD were immunoblotted with anti-FADD antibody. The GST and GSTMUC1-CD proteins were stained with Coomassie blue.
Purified GST, GST-MUC1-CD(1-72), GST-MUC1-CD deletion mutants, GST-caspase-8, GST-caspase-8 deletion mutants, GST-FADD, GST-N-FADD and GST-C-FADD protein (36) were purified from E. coli (BL21 DE3) and immobilized on glutathione-agarose beads (Pierce). His-MUC1-CD(1-72) and His-caspase-8 deletion mutant proteins were purified on Ni-NTA beads (Qiagen, Valencia, Calif.). GST and GST fusion proteins bound to glutathione beads were incubated with purified soluble proteins for 2 hours at 4° C., and washed. Adsorbates bound to the beads were analyzed by solubilizing the protein/bead mixture in Laemli buffer following by sodium dodecyl sulfate polyacrylamide gel electrophoresis (SDS-PAGE) and immunoblotting. For competition studies, GST-caspase-8 DED protein bound to FADD was incubated with increasing amounts of MUC1-CD protein. Precipitated proteins were subjected to SDS-PAGE and immunoblot analysis. In certain studies, binding was performed in the presence of a synthetic peptide ([…]) (SEQ ID NO:3) derived from amino acids 1-20 from MUC1-CD (Molecular Biology Core Facility, Dana-Farber Cancer Institute).

FADD [2] = biological target: T2, FADD; assay: In vitro competition: GST-caspase-8(1-183) binding to FADD with increasing amounts of MUC1-CD; details: increasing amounts of MUC1-CD protein (FIG. 12C)
Description: FIG. 12C: GST or GST-caspase-8(1-183) containing the DEDs was incubated with FADD in the absence or presence of increasing amounts of purified MUC1-CD. The adsorbates and input FADD were immunoblotted with anti-FADD antibody. Input of GST and GST-caspase-8(1-183) was determined by Coomassie blue staining. Input of MUC1-CD was determined by immunoblotting.
as §2

MUC1-CD = biological target: T3, MUC1-CD (Homo sapiens, UniProt P15941); assay: In vitro binding assay of His-caspase-8-p18 fragments with GST-MUC1-CD; details: GST-MUC1-CD on glutathione beads (FIG. 9C)
T3 construct: Purified GST, GST-MUC1-CD(1-72), GST-MUC1-CD deletion mutants; made in house; host or cells: E. coli BL21 DE3
T3 sequence (P15941 1184-1255): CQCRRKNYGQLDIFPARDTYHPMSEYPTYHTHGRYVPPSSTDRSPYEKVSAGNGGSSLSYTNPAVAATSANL
Description: FIG. 9C is a schematic of his-tagged caspasc-8 p18 fragment depicting the A, B, C and AB subfragments (upper panel). The shaded region denotes position of the His tag. GST or GST-MUC1-CD was incubated with the indicated His-caspase-8 proteins. The adsorbates and input proteins ( 1/10th that used in the reactions) were immunoblotted with anti-His and anti-GST antibodies as indicated to the right of the photographs.
as §2

AAGGTACCATCAATGTCCACG (expressed or natural sequence) [MUC1siRNA#1]
FasL-induced apoptosis (BC-1 cells): sensitized
MUC1-C expression (MUC1-C): stably downregulated

AAGTTCAGTGCCCAGCTCTAC (expressed or natural sequence) [MUC1siRNA#2]
FasL-induced apoptosis (BC-1 cells): confirmed
MUC1-C expression (MUC1-C): similar

CQCRRKNYGQLDIFPARDTY (listed as Homo sapiens) [MUC1-CD(1-20) peptide, synthetic peptide derived from amino acids 1-20 from MUC1-CD]
binding of MUC1-CD(1-20) to caspase-8-p18 in the presence of the peptide (caspase-8-p18): inhibited

MUC1-CD(1-20): GST-MUC1-CD fragment containing just amino acids 1-20 of MUC1-CD (CQCRRKNYGQLDIFPARDTY; cysteine pairing not given here; also: GST fusion)
binding to caspase-8 (caspase-8): able to interact with caspase-8

MUC1-CD(1-45): GST-MUC1-CD deletion mutant, amino acids 1-45 of MUC1-CD (CQCRRKNYGQLDIFPARDTYHPMSEYPTYHTHGRYVPPSSTDRSP; cysteine pairing not given here; also: GST fusion)
binding to FADD (FADD [1]): not

MUC1-CD: 72 amino acid cytoplasmic domain of full-length human MUC1, purified as His- or GST-tagged protein
binding to FADD (FADD [1]): interact directly
binding to caspase-8 (caspase-8): binds to caspase-8
interaction between FADD and caspase-8 (1-183) (FADD [2]): progressive decrease

YEKVSAGNGGSSLSYTNPAVAATSANL (also: GST fusion; listed as Homo sapiens) [MUC1-CD(46-72), GST-MUC1-CD deletion mutant, amino acids 46-72 of MUC1-CD]
binding to FADD (FADD [1]): found to bind to FADD

caspase-8-p18-B: His-tagged fragment B of caspase-8-p18, amino acids 270-322 of human caspase-8 (KLHSIRDRNGTHLDAGALTTTFEELHFEIKPHHDCTVEQIYEILKIYQLMDHS; also: His tag; listed as Homo sapiens)
binding to MUC1-CD (MUC1-CD): binds
